Data taken from patent publication US9987299B2, “Methods of improving RNAi in well-differentiated airway epithelia” (University of Iowa Research Foundation, priority 2014, dated 2018).

Tests used:
CFTR protein = CFTR protein levels, immunoprecipitation and immunoblot with densitometry in HAE; format: cell-based, human
Description: FIG. 4. […] Alternatively, spiperone was applied apically and basolaterally to well-differentiated HAE for 6 hours, and then removed by rinsing before incubation for 4 hours with CFTR-targeting or NC1 DsiRNAs complexed with Transductin. In both cases, 24 hours after transfection, and RNA levels quantified by RT-qPCR. (b) A representative immunoblot from similarly treated wells, but cells were lysed and proteins visualized after immunoprecipitation with anti-CFTR antibody. Alpha-tubulin was used as a loading control. (c) Densitometry readings of immunoblots with results normalized to NC1 treated samples. In all cases, data are from 3 biological replicates and are mean±SD. ***p<0.001, **p<0.01 (Student's t-test).
HAE were rinsed with PBS and lysed in RIPA buffer (1% NP-40, 0.5% sodium deoxycholate, 0.1% SDS, 50 mM Tris, protease inhibitors [complete; mini, EDTA-free; Roche Biochemicals, Indianapolis, Ind.]) for 30 minutes at 4° C. The lysate were centrifuged in a table top centrifuge at 14,000 rpm for 20 minutes at 4° C. The supernatant was quantified by BCA protein assay kit (Pierce, Rockford, Ill.). Thirty micrograms of protein per lane was separated on a 10% Tris-HCL Criterion precast gel (Bio-Rad, Hercules, Calif.) for western blot analysis. The protein was transferred to Polyvinylidene difluoride membrane and then was probed with goat anti-RSV antibody purchased from Meridian Life Sciences (Memphis, Tenn.). The membrane was imaged, and then stripped with Restore Western Blot Stripping Buffer (Thermo Scientific, Lafayette, Colo.) for 15 minutes. The membrane was rinsed with Tris-buffered saline-Tween (TBS-T) and blocked in 5% bovine serum albumin (Research Products International Corp, Mt. Prospect, Ill.). The membrane was then reprobed with α-tubulin (Sigma-Aldrich).

CFTR channel activity = test: Transepithelial short-circuit current and conductance in HAE; format: cell-based, human; conditions: PAF treated and CFTR DsiRNA transduced cells
Human HPRT mRNA = test: HPRT mRNA silencing by DsiRNA-Transductin in well-differentiated HAE (RT-qPCR); format: cell-based
Description: FIG. 1. […] (a) Well-differentiated HAE cultures grown at the ALI were incubated in adding HPRT-targeting or control NC1 DsiRNA (250 nM) formulated with Transductin containing 0.1 or 0.01 mg LOS (HPRT-targeting DsiRNAs) or 0.1 mg LOS (NC1 DsiRNA). After 4 hours, the apical surface was rinsed and 24 hours later, target RNA levels quantified by RT-qPCR. All mRNA levels were normalized to NC1-treated samples. Mean levels were calculated from three biological replicates, each done in triplicate. ***p<0.001, **p<0.01 (Student's t-test). […] Samples were normalized to NC1-treated cells. ***p<0.001, **p<0.01 (Student's t-test). […] PAFRa was present throughout transfection in cells pre-treated with the reagent. Cells were harvested and RNA quantified 24 hrs later. Samples were normalized to NC1-treated cells. **p<0.01 (Student's t-test).
FIG. 3. Spiperone improves RNAi responses in DsiRNA transduced cells. HAE were pre-treated with various small molecules at the concentration indicated. The drugs were added to the apical surface and the basolateral media for 6 hours. Both surfaces were then washed and HPRT or NC1 DsiRNA formulated with Transductin added to the apical surface. The cells were washed after 4 hours, and RT-qPCR done on cell lysates harvested 24 hours later.
Human airway epithelial cells were obtained from trachea and bronchi of lungs removed for organ donation from non-CF individuals. Cells were isolated by enzyme digestion as previously described. Following enzymatic dispersion, cells were seeded at a density of 5×10^5 cells/cm^2 onto collagen-coated, 0.6 cm^2 semi permeable membrane filters (Millipore polycarbonate filters; Millipore Corp., Bedford, Mass.). The cells were maintained at 37° C. in a humidified atmosphere of 5% CO2 air. Twenty-four hours after plating, the apical media was removed and the cells were maintained at an air-liquid interface (ALI) to allow differentiation of the epithelium. The culture medium consisted of 1:1 ratio mix of Dulbecco's modified Eagle's medium (DMEM)/Ham's F12, 5% Ultroser G (Biosepra S A, Cedex, France), 100 U/ml penicillin, 100 μg/ml streptomycin, 1% nonessential amino acids and 0.12 U/ml insulin. Studies were performed on well-differentiated epithelia approximately 4 to 6 weeks after initiation of the ALI cultures conditions. HEp-2 cells were maintained in MEM substituted with 10% fetal bovine serum and 100 U/ml penicillin.
PAF was purchased from Sigma-Aldrich. The reagent was reconstituted in ethanol and used in the experiment at a concentration of 200 nM or as described in the figures. PAF was added to the transfection mixture at the apical surface as well as to the basolateral media. PAFRa (WEB 2086) was purchased from Sigma-Aldrich. […] The reagent was incubated with the cells throughout the transfection period.
All the small molecules tested were purchased from Sigma-Aldrich. The chemicals were reconstituted in appropriate solutions as recommended by the manufacturer. The epithelia were pre-treated with drugs for 6 hours at concentrations used in the CMAP study or noted in the published literature. Following drug treatment, the epithelia were transduced with DsiRNA as described above.
For well-differentiated airway epithelia, transfection was performed mostly according to the manufacturer's protocol. In all cases, the apical surface of epithelia was rinsed twice with PBS before adding the transfection mixture to the apical surface. DsiRNAs were used at a concentration of 250 nM. The mixture was left on the cells for 4 hours after which the medium was removed, the apical surface rinsed with PBS and the cells incubated further for 24 hours. For all experiments, a minimum of 3 biological replicates, in triplicate, were done.
Total RNA was isolated using SV96 RNA isolation kit (Promega, Madison, Wis.), according to manufacturer's protocol. […]

RSV N and P protein = test: RSV protein immunoblot in infected HAE; format: cell-based, Respiratory Syncytial Virus; conditions: PAF with RSV N DsiRNA; immunoblot 48 hours after infection
Excerpt: FIG. 6. […] HAE was either treated or untreated with PAF in concurrence with RSV N DsiRNA. Six hours later the cells were infected with RSV at an MOI of 1. Forty eight hours later, the cell washings from the apical surface was collected and assayed for viral titer (a). The cells were lysed and the proteins visualized after immunoprecipitation with anti-RSV antibodies (b) and the bands quantified by densitometry (c). Data are mean±SD from the results three different experiments, each using a different donor. ***p<0.001 (Student's t-test).
RSV infection of HAE for both for immunoblot and viral titer was done at an MOI of 1. The virus was thawed at 37° C. and diluted in MEM (0% FCS) to a volume of 70 μl (1MOI)/well. The cells in Millicell filters were rinsed with the same media once and the virus applied to the apical surface. The plate was incubated at 37° C. for a period of 2 hours. After the incubation period, the virus inoculum was rinsed with MEM three times to remove any traces of the virus. The plates were then incubated at 37° C. until used for the assay.
HAE were rinsed with PBS and lysed in RIPA buffer (1% NP-40, 0.5% sodium deoxycholate, 0.1% SDS, 50 mM Tris, protease inhibitors [complete; mini, EDTA-free; Roche Biochemicals, Indianapolis, Ind.]) for 30 minutes at 4° C. […] The supernatant was quantified by BCA protein assay kit (Pierce, Rockford, Ill.). […]

Substance: platelet activating factor [PAF]
- CFTR protein levels compared to controls (CFTR protein; PAF or spiperone and CFTR DsiRNA-Transductin, immunoprecipitation, western blot): reduced CFTR protein levels
- fully glycosylated CFTR band C (CFTR protein; densitometry, normalized to NC1 treated samples): significantly decreased
- cAMP-activated changes in transepithelial current and conductance (CFTR channel activity): significantly reduced
- duration of knock down: HPRT mRNA levels (Human HPRT mRNA; 1 and 3 days post PAF-assisted transfection): significantly reduced
- duration of knock down: HPRT transcript levels (Human HPRT mRNA; 6 and 10 days post PAF-assisted transfection): returning to basal levels
- dose-response of PAF on DsiRNA silencing (Human HPRT mRNA; PAF at different doses, 4 hours with HPRT DsiRNA-Transductin (FIG. 7)): A dose-response relationship for PAF on DsiRNA silencing was observed
- RSV N and P protein abundance compared to untreated control cells (RSV N and P protein): reduced
